Test results taken from ChEMBL document CHEMBL3351649, “A new goniothalamin N-acylated aza-derivative strongly downregulates mediators of signaling transduction associated with pancreatic cancer aggressiveness” (Eur J Med Chem, 2014).
The source made the active and inactive calls. No cut-off for these calls is given here.

Experiments:
[1] = (§1) Cytotoxicity against human PANC1 cells assessed as reduction in cell viability after 24 hrs by MTT reduction assay; format: functional, cell-based; settings: PANC-1, 24 h
HaCaT = experiment: Cytotoxicity against human HaCaT cells assessed as reduction in cell viability after 24 hrs by MTT reduction assay; format: cell-based
[2] = Selectivity ratio of IC50 for human HaCaT cells to IC50 for human PANC1 cells; format: ADME, cell-based; settings: HaCaT cells versus PANC1 cells, read-out: Ratio IC50
[3] = target: Tyrosine-protein kinase receptor UFO (Homo sapiens) (UniProt P30530); experiment: Inhibition of AXL in human PANC1 cells assessed as reduction in HIF-1alpha expression at 1.5 to 3 uM after 24 hrs by Western blot analysis; format: cell-based; settings: PANC-1
Sequence of Tyrosine-protein kinase receptor UFO (Homo sapiens) (P30530 whole entry): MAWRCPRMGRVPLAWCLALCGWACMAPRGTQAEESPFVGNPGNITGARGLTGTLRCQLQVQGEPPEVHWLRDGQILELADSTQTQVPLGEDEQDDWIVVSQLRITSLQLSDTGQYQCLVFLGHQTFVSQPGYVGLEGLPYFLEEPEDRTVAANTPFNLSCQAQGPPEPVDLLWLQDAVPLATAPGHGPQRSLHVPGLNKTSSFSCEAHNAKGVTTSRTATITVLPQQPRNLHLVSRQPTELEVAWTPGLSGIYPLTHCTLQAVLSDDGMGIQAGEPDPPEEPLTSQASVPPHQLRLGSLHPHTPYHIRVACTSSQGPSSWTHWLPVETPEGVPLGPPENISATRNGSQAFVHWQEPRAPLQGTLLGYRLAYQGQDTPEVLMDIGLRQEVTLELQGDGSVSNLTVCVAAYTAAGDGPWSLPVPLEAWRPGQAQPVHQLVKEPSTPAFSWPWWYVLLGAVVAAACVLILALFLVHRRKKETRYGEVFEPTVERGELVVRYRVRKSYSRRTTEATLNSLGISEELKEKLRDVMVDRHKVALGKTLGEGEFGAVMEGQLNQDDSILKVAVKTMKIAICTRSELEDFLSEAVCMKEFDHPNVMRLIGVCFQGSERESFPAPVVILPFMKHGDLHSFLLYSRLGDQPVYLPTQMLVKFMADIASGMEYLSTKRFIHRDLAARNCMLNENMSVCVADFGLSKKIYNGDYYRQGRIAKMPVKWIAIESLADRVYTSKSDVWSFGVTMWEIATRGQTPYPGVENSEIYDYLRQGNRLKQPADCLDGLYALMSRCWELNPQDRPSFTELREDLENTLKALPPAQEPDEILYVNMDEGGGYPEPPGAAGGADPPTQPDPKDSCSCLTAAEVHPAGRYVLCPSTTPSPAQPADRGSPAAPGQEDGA

PANC-1 [4] = experiment: Reduction in c-Myc protein level in human PANC1 cells at 1.5 to 3 uM after 24 hrs by Western blot analysis; format: functional, cell-based
PANC-1 [5] = experiment: Induction of apoptosis in human PANC1 cells assessed as increase in cleaved PARP-1 level at 1.5 to 3 uM after 24 hrs by Western blot analysis; format: functional, cell-based
PANC-1 [6] = experiment: Reduction in cyclin D1 protein level in human PANC1 cells at 1.5 to 3 uM after 24 hrs by Western blot analysis; format: functional, cell-based
[7] = Antiproliferative activity against human PANC1 cells assessed as reduction in colonies at 0.75 uM after 15 days by colony assay; format: functional, PANC-1; design: scale not given: the % may be the effect or the level left
[8] = Antiproliferative activity against human PANC1 cells assessed as reduction in colonies at 1.5 uM after 15 days by colony assay; format: functional, PANC-1; design: scale not given: the % may be the effect or the level left
PANC-1 [9] = experiment: Induction of apoptosis in human PANC1 cells assessed as increase in BAX/BCL-2 ratio at 1.5 to 3 uM after 24 hrs by Western blot analysis; format: functional, cell-based
[10] = Chemical reactivity under non-physiological condition at 25 mM using gluthatione as thiol nucleophile assessed as conjugate addition of GSH to compound after 24 hrs by 1H NMR spectroscopy; format: physicochemical; settings: 25000 µM
[11] = target: Tyrosine-protein kinase receptor UFO (Homo sapiens) (UniProt P30530); experiment: Inhibition of AXL in human PANC1 cells assessed as inhibition of ERK phosphorylation at Thr202/Tyr 204 at 1.5 to 3 uM after 24 hrs by Western blot analysis; format: cell-based; settings: PANC-1
PANC-1 [12] = experiment: Cytotoxicity against human PANC1 cells assessed as reduction in cell viability at 10 to 100 uM after 24 hrs by MTT reduction assay in presence of GSH; format: functional, cell-based
[13] = Antiproliferative activity against human PANC1 cells assessed as reduction in colonies after 15 days by colony assay; format: functional, cell-based; settings: PANC-1, 360 h
[14] = target: Tyrosine-protein kinase receptor UFO (Homo sapiens) (UniProt P30530); experiment: Inhibition of AXL in human PANC1 cells assessed as reduction in VEGF level at 1.5 to 3 uM after 24 hrs by Western blot analysis; format: cell-based; settings: PANC-1
PANC-1 [15] = experiment: Reduction in p-RB at Ser795 protein level in human PANC1 cells at 1.5 to 3 uM after 24 hrs by Western blot analysis; format: functional, cell-based
PANC-1 [16] = experiment: Reduction in AXL protein level in human PANC1 cells at 1.5 to 3 uM after 24 hrs by Western blot analysis; format: functional, cell-based
PANC-1 [17] = experiment: Induction of intracellular ROS production in human PANC1 cells at 25 to 100 uM after 1 hr using DCFH-DA by flow cytometry; format: functional, cell-based
PANC-1 [18] = experiment: Induction of apoptosis in human PANC1 cells assessed as reduction in pro-caspase-3 level at 1.5 to 3 uM after 24 hrs by Western blot analysis; format: functional, cell-based
PANC-1 [19] = experiment: Induction of intracellular ROS production in human PANC1 cells at 1.5 to 3 uM after 1 hr using DCFH-DA by flow cytometry; format: functional, cell-based
PANC-1 [20] = experiment: Induction of apoptosis in human PANC1 cells assessed as increase in BAX/BCL-2 ratio at 30 to 60 uM after 24 hrs by Western blot analysis; format: functional, cell-based
PANC-1 [21] = experiment: Cytoprotective activity in 1 hr GSH-pretreated human PANC1 cells assessed as increase in cell viability at 10 to 100 uM after 24 hrs by MTT reduction assay; format: functional, cell-based
[22] = target: Tyrosine-protein kinase receptor UFO (Homo sapiens) (UniProt P30530); experiment: Effect on AXL in human PANC1 cells assessed as increase in p-ERK at Thr202/Tyr 204 protein level at 30 to 60 uM after 24 hrs by Western blot analysis; format: cell-based; settings: PANC-1
PANC-1 [23] = experiment: Reduction in p-RB at Ser795 protein level in human PANC1 cells at 30 to 60 uM after 24 hrs by Western blot analysis; format: functional, cell-based
[24] = Antiproliferative activity against human PANC1 cells assessed as reduction in colonies at 30 uM after 15 days by colony assay; format: functional, PANC-1; design: scale not given: the % may be the effect or the level left
PANC-1 [25] = experiment: as §1; format: functional, cell-based
PANC-1 [26] = experiment: Reduction in cyclin D1 protein level in human PANC1 cells at 30 to 60 uM after 24 hrs by Western blot analysis; format: functional, cell-based
[27] = Antiproliferative activity against human PANC1 cells assessed as reduction in colonies at 15 uM after 15 days by colony assay; format: functional, PANC-1; design: scale not given: the % may be the effect or the level left
PANC-1 [28] = experiment: Induction of apoptosis in human PANC1 cells assessed as reduction in pro-caspase-3 level at 30 to 60 uM after 24 hrs by Western blot analysis; format: functional, cell-based
PANC-1 [29] = experiment: Reduction in c-Myc protein level in human PANC1 cells at 30 to 60 uM after 24 hrs by Western blot analysis; format: functional, cell-based
PANC-1 [30] = experiment: Induction of apoptosis in human PANC1 cells assessed as increase in cleaved PARP-1 level at 30 to 60 uM after 24 hrs by Western blot analysis; format: functional, cell-based
PANC-1 [31] = experiment: Reduction in AXL protein level in human PANC1 cells at 30 to 60 uM after 24 hrs by Western blot analysis; format: functional, cell-based

SMILES: C=CC(=O)N1C(=O)C=CCC1/C=C/c1ccccc1 (configuration not stated)
- IC50 [1]: 8.1 µM

SMILES: COc1cc(/C=C/C(=O)N2C(=O)C=CCC2/C=C/c2ccccc2)cc(OC)c1OC (configuration not stated)
- IC50 (HaCaT): 8.5 µM
- selectivity ratio [2]: 3.14
- inhibition [3]: Active
- Activity (PANC-1 [4]): Active
- Activity (PANC-1 [5]): Active
- Activity (PANC-1 [6]): Active
- Activity [7]: 40%
- Activity [8]: 90%
- Activity (PANC-1 [9]): Active
- Activity [10]: Active
- inhibition [11]: Active
- Activity (PANC-1 [12]): Dose-dependent effect
- IC50 [1]: 2.7 µM
- IC50 [13]: 2.7 µM
- inhibition [14]: Active
- Activity (PANC-1 [15]): Active
- Activity (PANC-1 [16]): Active
- Activity (PANC-1 [17]): Active
- Activity (PANC-1 [18]): Active

SMILES: O=C1C=CC[C@H](/C=C/c2ccccc2)O1 [GONIOTHALAMIN]
- Activity (PANC-1 [19]): Active
- Activity (PANC-1 [20]): Active
- IC50 (HaCaT): 28.6 µM
- selectivity ratio [2]: 0.44
- Activity (PANC-1 [21]): Active
- Activity [22]: Active
- Activity (PANC-1 [23]): Active
- Activity [10]: Active
- Activity [24]: 70%
- IC50 [1]: 65 µM
- Activity (PANC-1 [25]): Dose-dependent effect
- Activity (PANC-1 [26]): Active
- Activity [27]: 50%
- Activity (PANC-1 [28]): Active
- IC50 [13]: 65 µM
- Activity (PANC-1 [29]): inactive
- Activity (PANC-1 [30]): Active
- Activity (PANC-1 [31]): Active

SMILES: CC(=O)N1C(=O)C=CCC1/C=C/c1ccccc1 (configuration not stated)
- IC50 [1]: 42.3 µM
- Activity (PANC-1 [25]): Dose-dependent effect

SMILES: O=C1C=CCC(/C=C/c2ccccc2)N1C(=O)/C=C/c1ccc(O)c(O)c1 (configuration not stated)
- IC50 [1]: 5.7 µM

SMILES: O=C1C=CCC(/C=C/c2ccccc2)N1C(=O)CCc1ccc(O)c(O)c1 (configuration not stated)
- IC50 [1]: 6.8 µM

SMILES: O=C1C=CCC(/C=C/c2ccccc2)N1 (configuration not stated)
- Activity [10]: Not Active
- IC50 [1]: > 100 µM

SMILES: O=C1C=CCC(/C=C/c2ccccc2)N1C(=O)/C=C/c1ccccc1 (configuration not stated)
- IC50 [1]: 16.3 µM

SMILES: COc1cc(/C=C/C(=O)N2CCC=CC2=O)cc(OC)c1OC [PIPLARTINE]
- IC50 (HaCaT): 16 µM
- selectivity ratio [2]: 5
- IC50 [1]: 3.2 µM

SMILES: COC(=O)N1C(=O)C=CCC1/C=C/c1ccccc1 (configuration not stated)
- IC50 [1]: 53.7 µM
- Activity (PANC-1 [25]): Dose-dependent effect

SMILES: C/C=C/C(=O)N1C(=O)C=CCC1/C=C/c1ccccc1 (configuration not stated)
- IC50 [1]: 4.2 µM

SMILES: COc1cc(/C=C/C(=O)N2C(=O)C=CCC2/C=C/c2ccccc2)ccc1O (configuration not stated)
- IC50 [1]: 15.6 µM
